Where a name gives a salt, the structure may show the parent alone. Read-outs that look alike come from different tables or passages of the source.
Key:
[1] = test system: control (Neo) cells; test: Oxygen consumption rate (OCR) assay, control (Neo) HEK293 cells; assay type: cell-based; conditions: Homo sapiens, read-out: Oxygen Consumption Rate (OCR) IC50, Neo
From the text: (§1) Diabetologia 2011, 54 (12): 3101-3110, each incorporated by reference with regard to such testing. The compounds of the present invention are similarly tested in an oxygen consumption rate (OCR) assay to evaluate the functional activity of test compounds in cells.
(§2) In brief, the assay uses HEK293 cells stably transfected with the human OCT1, OCT2, OCT3, PMAT, or MATE1 transporters to determine a compound's relative transporter selectivity and its effect on the rate of oxygen consumption relative to control (Neo) cells. The MitoXpress Xtra oxygen-sensitive fluorophore is used to monitor oxygen consumption rates in the presence and absence of compound treatments. The analogs were tested at eight (8) different concentrations in triplicate to determine a relative IC50 value.
(§3) A summary description of the protocol is as follows:
(§4) HEK293 cells transformed with human organic cation transporters were plated in collagen coated, 96-well black-walled microclear plates (Greiner-Bio 1, #655956) at 60,000 cells per well in growth medium (DMEM (LG), 10% FBS, 400 μg/ml G418). Cells were incubated overnight to allow attachment. The outer columns (1 and 12) are not seeded with cells, as controls. The next day, plating medium was removed and replaced with 150 μL of assay medium (DMEM/F12 (PRF), 5% FBS, antibiotics) containing compound dilutions. A 3-fold serial dilution was prepared in the assay medium and transferred to the empty wells. The outer columns and column 11 received 150 μL of assay medium only. 10 μL of MitoXpress Xtra reagent was added to each test well, and 100 μL of pre-warmed mineral oil was overlayed in each well to create a seal. Dual read time-resolved fluorescence (BMG FluoStar Galaxy reader) was measured over 2 hours with measurements taken every 2 minutes. Excitation is 340 nm, Emission is 650 nm. For lifetime analysis, two measurements per well were taken: 1) delay of 30 μs, with a window of 30 μs; and 2) delay of 70 μs with a window of 30 μs. Background TRF values from A1-D1 were subtracted from all readings. A ratiometric analysis was performed to determine changes in the Lifetime fluorescence signal:Lifetime (μs) [T]=(D2−D1)/ln(W1/W2), where D is delay; W is fluorescence window value at each time point. Lifetime slopes were calculated using each Lifetime measurement over time. IC50 values were determined by plotting lifetime slope values vs. compound concentration.

[2] = molecular target: T1, human MATE1 (Homo sapiens, UniProt Q96FL8); test: Oxygen consumption rate (OCR) assay, HEK293 cells transfected with MATE1; conditions: for inhibition at 1000 µM: HEK293, read-out: Oxygen Consumption Rate (OCR), MATE 1, % Inhibition at 1000 μM test concentration
T1 sequence (Q96FL8 1-570): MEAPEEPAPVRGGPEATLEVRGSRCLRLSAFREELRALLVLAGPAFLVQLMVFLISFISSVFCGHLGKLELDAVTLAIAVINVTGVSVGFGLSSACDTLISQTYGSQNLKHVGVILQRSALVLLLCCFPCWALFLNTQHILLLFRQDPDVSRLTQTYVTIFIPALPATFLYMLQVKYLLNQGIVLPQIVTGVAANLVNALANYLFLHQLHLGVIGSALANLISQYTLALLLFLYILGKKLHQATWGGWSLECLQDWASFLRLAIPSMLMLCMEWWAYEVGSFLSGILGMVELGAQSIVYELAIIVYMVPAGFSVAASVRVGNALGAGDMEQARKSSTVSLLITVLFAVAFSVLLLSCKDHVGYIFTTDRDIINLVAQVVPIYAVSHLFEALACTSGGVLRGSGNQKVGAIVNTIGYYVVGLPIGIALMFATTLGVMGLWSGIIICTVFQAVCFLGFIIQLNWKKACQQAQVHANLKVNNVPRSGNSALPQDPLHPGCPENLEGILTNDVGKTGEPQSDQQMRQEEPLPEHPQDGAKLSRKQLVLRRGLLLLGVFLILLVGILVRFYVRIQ
From the text: The compounds of the present invention are similarly tested in an oxygen consumption rate (OCR) assay to evaluate the functional activity of test compounds in cells.
as §2, §3
as §4, with “Cells” for “HEK293 cells transformed with human organic cation transporters were plated in collagen coated, 96-well black-walled microclear plates (Greiner-Bio 1, #655956) at 60,000 cells per well in growth medium (DMEM (LG), 10% FBS, 400 μg/ml G418). Cells”

[3] = molecular target: T2, human PMAT (Homo sapiens, UniProt Q7RTT9); test: Oxygen consumption rate (OCR) assay, HEK293 cells transfected with PMAT; assay type: cell-based; conditions: for inhibition at 10 µM: HEK293 cells with human PMAT
T2 construct: expressed in transfected cells; host or cells: HEK293
T2 sequence (Q7RTT9 1-530): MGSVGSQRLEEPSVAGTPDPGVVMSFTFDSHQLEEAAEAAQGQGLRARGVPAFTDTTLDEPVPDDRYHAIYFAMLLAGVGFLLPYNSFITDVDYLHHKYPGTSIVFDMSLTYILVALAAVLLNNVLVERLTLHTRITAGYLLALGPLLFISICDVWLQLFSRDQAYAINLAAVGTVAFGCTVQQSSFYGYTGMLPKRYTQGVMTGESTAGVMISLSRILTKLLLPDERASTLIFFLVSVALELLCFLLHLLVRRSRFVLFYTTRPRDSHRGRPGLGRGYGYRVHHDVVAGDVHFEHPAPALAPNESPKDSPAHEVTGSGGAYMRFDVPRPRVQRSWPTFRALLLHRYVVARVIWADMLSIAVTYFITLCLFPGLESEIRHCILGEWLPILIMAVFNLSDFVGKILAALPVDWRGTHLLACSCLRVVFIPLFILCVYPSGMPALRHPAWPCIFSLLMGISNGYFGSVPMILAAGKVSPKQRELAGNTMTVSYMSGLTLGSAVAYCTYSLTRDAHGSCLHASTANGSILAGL
From the text: as §1, §2, §3, §4

[4] = control (Neo) HEK293 cells, MitoXpress Xtra, 2 hours

| SMILES | IC50 [1, 4] [µM] | IC50 [2] [µM] | inhibition at 10 µM [3] [%] | IC50 ([1]; HEK293, 2 h) [µM] | IC50 [3] [µM] | inhibition at 1000 µM [2] [%] |
| --- | --- | --- | --- | --- | --- | --- |
| Cc1ccc2c(CCNC(=N)NC(=N)N)c[nH]c2c1 [Ex 56, 1-[2-(6-methyl-1H-indol-3-yl)ethyl]imidodicarbonimide diamide, trifluoroacetate salt] | 895 | 769 | 43 |  |  |  |
| Cc1cccc2c(CCNC(=N)NC(=N)N)c[nH]c12 [Ex 59, 1-[2-(7-methyl-1H-indol-3-yl)ethyl]imidodicarbonimide diamide, trifluoroacetic acid salt] | 1290 | 112 | 47 |  |  |  |
| N=C(N)NC(=N)NCCc1c[nH]c2cccnc12 [Ex 21, 1-(2-(1H-pyrrolo[3,2-b]pyridin-3-yl)ethyl)imidodicarbonimide diamide acetate] | > 3000 | 1540 | 27 |  |  |  |
| Cc1ccc2[nH]cc(CCNC(=N)NC(=N)N)c2c1 [Ex 10, 1-[2-(5-methyl-1H-indol-3-yl)ethyl]imidodicarbonimide diamide trifluoroacetic acid salt] | 439 | 2190 | 43 |  |  |  |
| N=C(N)NC(=N)NCCc1c[nH]c2c(F)c(F)c(F)cc12 [Ex 41, 1-[2-(5,6,7-trifluoro-1H-indol-3-yl)ethyl]imidodicarbonimide diamide, trifluoroacetic acid salt] |  | 675 |  | 460 | 6 |  |
| Cc1c(CCNC(=N)NC(=N)N)c2ccccc2n1C [Ex 16, 1-[2-(1,2-dimethyl-1H-indol-3-yl)ethyl]imidodicarbonimide diamide] | 1210 |  | 36 |  |  | 10 |
| N=C(N)NC(=N)NCCc1c[nH]c2cc(Cl)c(F)cc12 [Ex 48, 1-[2-(6-chloro-5-fluoro-1H-indol-3-yl)ethyl]imidodicarbonimide diamide, trifluoroacetic acid salt] | 210 | 101 | 61 |  |  |  |
| N=C(N)NC(=N)NCCCc1c[nH]c2ccccc12 [Ex 7, hydrochloride] | > 10000 |  | 7 |  |  | 36 |
| CN(C)C(=N)NC(=N)NCCc1c[nH]c2cc(F)ccc12 [Ex 23, 3-(2-(6-fluoro-1H-indol-3-yl)ethyl)-1,1-dimethyl imidodicarbonimide diamide hydrochloride] | > 3000 | > 10000 | 4 |  |  |  |
| CC(C)(CNC(=N)NC(=N)N)c1c[nH]c2ccccc12 [Ex 8] | > 1000 |  | 20 |  |  | 31 |
| N=C(N)NC(=N)NCCc1c[nH]c2c(Cl)cccc12 [Ex 36, 1-[2-(7-chloro-1H-indol-3-yl)ethyl]imidodicarbonimide diamide, trifluoroacetic acid salt] | 409 | 26 | 55 |  |  |  |
| N=C(N)NC(=N)NCCc1c[nH]c2ccc(OC(F)(F)F)cc12 [Ex 57, 1-[2-(5-trifluoromethoxy-1H-indol-3-yl)ethyl]imidodicarbonimide diamide, trifluoroacetic acid salt] | 255 | 631 | 6 |  |  |  |
| N=C(N)NC(=N)NCCc1c[nH]c2ccc([N+](=O)[O-])cc12 [Ex 18, 1-[2-(5-nitro-1H-indol-3-yl)ethyl]imidodicarbonimide diamide, trifluoroacetic acid salt] | 1410 |  | 27 |  |  | -26 |
| N=C(N)NC(=N)NCCc1cn(CCO)c2ccccc12 [Ex 13, 1-[2-(1-(2-hydroxyethyl)-1H-indol-3-yl)ethyl]imidodicarbonimide diamide trifluoroacetic acid salt] | 2520 |  |  |  |  | 22 |
| CN(C)C(=N)NC(=N)NCCc1c[nH]c2ccc(Cl)cc12 [Ex 53, 3-(2-(5-chloro-1H-indol-3-yl)ethyl)-1,1-dimethyl imidodicarbonimide diamide trifluoroacetic acid salt] | 422 | 398 |  |  |  |  |
| N=C(N)NC(=N)NCCc1c[nH]c2cc(F)c(F)c(F)c12 [Ex 50, 1-[2-(4,5,6-trifluoro-1H-indol-3-yl)ethyl]imidodicarbonimide diamide, trifluoroacetic acid salt] | 181 | 102 |  |  |  |  |
| COc1cccc2[nH]cc(CCNC(=N)NC(=N)N)c12 [Ex 14, 1-[2-(4-methoxy-1H-indol-3-yl)ethyl]imidodicarbonimide diamide trifluoroacetic acid salt] | 1310 |  |  |  |  | 39 |
| N=C(N)NC(=N)NCCc1c[nH]c2c(F)c(Cl)ccc12 [Ex 51, 1-[2-(6-chloro-7-fluoro-1H-indol-3-yl)ethyl]imidodicarbonimide diamide, trifluoroacetic acid salt] | 542 | 597 |  |  |  |  |
| N=C(N)NC(=N)NCCc1c[nH]c2cc(F)cc(F)c12 [Ex 61, 1-[2-(4,6-difluoro-1H-indol-3-yl)ethyl]imidodicarbonimide diamide, trifluoroacetic acid salt] | 333 | 62 |  |  |  |  |
| N=C(N)NC(=N)NCCc1c[nH]c2ncc(Cl)cc12 [Ex 40, 1-(2-(5-chloro-1H-pyrrolo[2,3-b]pyridin-3-yl)ethyl)imidodicarbonimide diamide, trifluoroacetic acid salt] | > 1000 | 1470 |  |  |  |  |
| N=C(N)NC(=N)NCCc1c[nH]c2c(Cl)cc(F)cc12 [Ex 38, 1-[2-(7-chloro-5-fluoro-1H-indol-3-yl)ethyl]imidodicarbonimide diamide, trifluoroacetic acid salt] | 8760 | 2050 |  |  |  |  |

Reference: US12371404B2, “Fused bicyclic alkylene linked imidodicarbonimidic diamides, methods for synthesis, and uses in therapy” (NovaTarg, Inc., priority 2016, dated 2025)
